≈ marks a conversion by molar mass, not a printed value. Square brackets hold non-standard residues; d marks the D form. Peptide text beside a SMILES is read from it. Orn = NCCC[C@H](N)C(=O)O
Legend:
Type in all cases: functional
Enterococcus faecalis [1] = assay: Antimicrobial activity against Enterococcus faecalis
Candida albicans = assay: Antimicrobial activity against Candida albicans
Streptococcus pneumoniae [2] = assay: Antimicrobial activity against penicillin-resistant Streptococcus pneumoniae
Streptococcus pneumoniae [3] = assay: Antimicrobial activity against Streptococcus pneumoniae
Staphylococcus aureus [4] = assay: Antimicrobial activity against methicillin-resistant Staphylococcus aureus
Escherichia coli = assay: Antimicrobial activity against Escherichia coli
Burkholderia cepacia = assay: Antimicrobial activity against Pseudomonas cepacia
Enterococcus faecium [5] = assay: Antimicrobial activity against vancomycin-resistant Enterococcus faecium
[6] = tested on: Stenotrophomonas maltophilia; assay: Antimicrobial activity against Xanthomonas maltophilia
Enterococcus faecium [7] = assay: Antimicrobial activity against Enterococcus faecium
Staphylococcus aureus [8] = assay: Antimicrobial activity against Staphylococcus aureus
Pseudomonas aeruginosa = assay: Antimicrobial activity against Pseudomonas aeruginosa
Enterococcus faecalis [9] = assay: Antimicrobial activity against vancomycin-resistant Enterococcus faecalis

Row | SMILES | MIC (Enterococcus faecalis [1]) [µg/mL] | MIC (Candida albicans) [µg/mL] | MIC (Streptococcus pneumoniae [2]) [µg/mL] | MIC (Streptococcus pneumoniae [3]) [µg/mL] | MIC (Staphylococcus aureus [4]) [µg/mL] | MIC (Escherichia coli) [µg/mL] | MIC (Burkholderia cepacia) [µg/mL] | MIC (Enterococcus faecium [5]) [µg/mL] | MIC [6] [µg/mL] | MIC (Enterococcus faecium [7]) [µg/mL] | MIC (Staphylococcus aureus [8]) [µg/mL] | MIC (Pseudomonas aeruginosa) [µg/mL] | MIC (Enterococcus faecalis [9]) [µg/mL]
1 | CC(C)C[C@@H]1NC(=O)[C@H](CCCN)NC(=O)[C@H](C(C)C)NC(=O)[C@H](Cc2ccc(O)cc2)NC(=O)[C@H](CC(=O)O)NC(=O)[C@H](CC(N)=O)NC(=O)[C@@H](Cc2ccccc2)NC(=O)[C@H](Cc2ccccc2)NC(=O)[C@@H]2CCCN2C(=O)[C@@H](Cc2ccc(O)cc2)NC1=O [LOLOATIN A] | 4 (≈ 3.14 µM) | 8 (≈ 6.28 µM) | 2 (≈ 1.57 µM) | 1 (≈ 0.785 µM) | 4 (≈ 3.14 µM) | > 32 | > 32 | 4 (≈ 3.14 µM) | > 32 | 4 (≈ 3.14 µM) | 4 (≈ 3.14 µM) | > 32 | 4 (≈ 3.14 µM)
2 | CC(C)C[C@@H]1NC(=O)[C@H](CCCN)NC(=O)[C@H](C(C)C)NC(=O)[C@H](Cc2c[nH]c3ccccc23)NC(=O)[C@H](CC(=O)O)NC(=O)[C@H](CC(N)=O)NC(=O)[C@@H](Cc2ccccc2)NC(=O)[C@H](Cc2ccccc2)NC(=O)[C@@H]2CCCN2C(=O)[C@@H](Cc2ccc(O)cc2)NC1=O [LOLOATIN B] | 2 (≈ 1.54 µM) | 8 (≈ 6.17 µM) | 1 (≈ 0.771 µM) | 1 (≈ 0.771 µM) | 2 (≈ 1.54 µM) | > 32 | > 32 | 2 (≈ 1.54 µM) | > 32 | 2 (≈ 1.54 µM) | 2 (≈ 1.54 µM) | > 32 | 2 (≈ 1.54 µM)
3 | CC(C)C[C@@H]1NC(=O)[C@H](CCCN)NC(=O)[C@H](C(C)C)NC(=O)[C@H](Cc2c[nH]c3ccccc23)NC(=O)[C@H](CC(=O)O)NC(=O)[C@H](CC(N)=O)NC(=O)[C@@H](Cc2ccccc2)NC(=O)[C@H](Cc2c[nH]c3ccccc23)NC(=O)[C@@H]2CCCN2C(=O)[C@@H](Cc2ccc(O)cc2)NC1=O [LOLOATIN C] (cyclo(DWV[Orn]L[dY]PW[dF]N)) | 1 (≈ 0.749 µM) | 8 (≈ 5.99 µM) |  | < 0.25 | 0.5 (≈ 0.374 µM) | 1 (≈ 0.749 µM) | > 32 | 2 (≈ 1.5 µM) | > 32 | 2 (≈ 1.5 µM) | 0.5 (≈ 0.374 µM) | > 32 | 1 (≈ 0.749 µM)
4 | CC(C)C[C@@H]1NC(=O)[C@H](CCCN)NC(=O)[C@H](C(C)C)NC(=O)[C@H](Cc2c[nH]c3ccccc23)NC(=O)[C@H](CC(=O)O)NC(=O)[C@H](CC(N)=O)NC(=O)[C@@H](Cc2ccccc2)NC(=O)[C@H](Cc2ccccc2)NC(=O)[C@@H]2C[C@@H](O)CN2C(=O)[C@@H](Cc2ccc(O)cc2)NC1=O [LOLOATIN D] | 8 (≈ 6.1 µM) | 16 (≈ 12.2 µM) | 4 (≈ 3.05 µM) | 4 (≈ 3.05 µM) | 8 (≈ 6.1 µM) | > 32 | > 32 | 8 (≈ 6.1 µM) | > 32 | 8 (≈ 6.1 µM) | 8 (≈ 6.1 µM) | > 32 | 8 (≈ 6.1 µM)

Reference: ChEMBL document CHEMBL1157988, “Loloatins A-D, cyclic decapeptide antibiotics produced in culture by a tropical marine bacterium” (1999)
